Tested on: Jurkat
Test: CellTiter-Glo Luminescent Cell Viability Assay, half inhibitory concentration (IC50) on tumor cell proliferation
Assay type: cell-based
Settings: Homo sapiens, Jurkat cells, 72 h treatment
Procedure: The tumor cells used herein were cultured in a cell culture medium at 37° C. in an incubator with 5% CO2, where the cell culture medium was supplemented with 10% FBS, as well as penicillin at a final concentration of 100 U/mL and streptomycin at a final concentration of 100 μg/mL. Prior to experimentation, all cells used were identified as correct cells by STR cells, and were negative for mycoplasma through routine testing.
IC50 values of the compounds of the present disclosure (including the compounds in Table 1 and compounds of examples) were measured using the CellTiter-Glo® Luminescent Cell Viability Assay kit from Promega Corporation. Assay details are as follows: Cells were seeded in 100 μL RPMI1640 medium containing serum at a density of 20,000 cells/well. After 24 h, the inoculated cells were treated with the compounds of the present disclosure which were serially diluted. After the cells were treated with the compounds of the present disclosure for 72 h, the CellTiter-Glo® reagent was added to the culture medium for cell viability assessment according to the instructions provided with the kit. DMSO served as the negative control, and FK866 inhibitor was used as the positive control, both treated with the same protocol as the compounds of the present disclosure. The growth inhibition of the compounds of the present disclosure on cells was plotted by Prism Graphpad software, and the IC50 values of the compounds of the present disclosure were calculated therefrom.

Row | IC50 | Structure (SMILES)
1 | 66.7 nM | O=C(/C=C/c1cccnc1)NCCCCC1CCN(C(=O)c2ccc(N3CCN(C(=O)COCCOCCSc4cccc5c4C(=O)N(C4CCC(=O)NC4=O)C5=O)CC3)cc2)CC1 (stereo not drawn) [SIAIS631112, (E)-N-(4-(1-(4-(4-(2-(2-(2-((2-(2,6-dioxopiperidin-3-yl)-1,3-dioxoisoindolin-4-yl)thio)ethoxy)ethoxy)acetyl)piperazin-1-yl)benzoyl)piperidin-4-yl)butyl)-3-(pyridin-3-yl)acrylamide]
2 | 68.1 nM | O=C(/C=C/c1cccnc1)NCCCCC1CCN(C(=O)c2ccc(N3CCN(C(=O)COCCOCCOCCSc4cccc5c4C(=O)N(C4CCC(=O)NC4=O)C5=O)CC3)cc2)CC1 (stereo not drawn) [SIAIS631113, (E)-N-(4-(1-(4-(4-(2-(2-(2-(2-((2-(2,6-dioxopiperidin-3-yl)-1,3-dioxoisoindolin-4-yl)thio)ethoxy)ethoxy)ethoxy)acetyl)piperazin-1-yl)benzoyl)piperidin-4-yl)butyl)-3-(pyridin-3-yl)acrylamide]
3 | 66.5 nM | O=C(/C=C/c1cccnc1)NCCCCC1CCN(C(=O)c2ccc(N3CCN(C(=O)COCCOCCOCCOCCSc4cccc5c4C(=O)N(C4CCC(=O)NC4=O)C5=O)CC3)cc2)CC1 (stereo not drawn) [SIAIS631114, (E)-N-(4-(1-(4-(4-(14-((2-(2,6-dioxopiperidin-3-yl)-1,3-dioxoisoindolin-4-yl)thio)-3,6,9,12-tetraoxatetradecanoyl)piperazin-1-yl)benzoyl)piperidin-4-yl)butyl)-3-(pyridin-3-yl)acrylamide]
4 | 74.2 nM | O=C(/C=C/c1cccnc1)NCCCCC1CCN(C(=O)c2ccc(N3CCN(C(=O)COCCOCCOCCOCCOCCSc4cccc5c4C(=O)N(C4CCC(=O)NC4=O)C5=O)CC3)cc2)CC1 (stereo not drawn) [SIAIS631115, (E)-N-(4-(1-(4-(4-(17-((2-(2,6-dioxopiperidin-3-yl)-1,3-dioxoisoindolin-4-yl)thio)-3,6,9,12,15-pentaoxaheptadecanoyl)piperazin-1-yl)benzoyl)piperidin-4-yl)butyl)-3-(pyridin-3-yl)acrylamide]
5 | 66.6 nM | O=C(/C=C/c1cccnc1)NCCCCC1CCN(C(=O)c2ccc(N3CCN(C(=O)COCCOCCOCCOCCOCCSc4cccc5c4CN(C4CCC(=O)NC4=O)C5=O)CC3)cc2)CC1 (stereo not drawn) [SIAIS631118, (E)-N-(4-(1-(4-(4-(17-((2-(2,6-dioxopiperidin-3-yl)-1-oxoisoindolin-4-yl)thio)-3,6,9,12,15-pentaoxaheptadecanoyl)piperazin-1-yl)benzoyl)piperidin-4-yl)butyl)-3-(pyridin-3-yl)acrylamide]
6 | 623 nM | O=C(/C=C/c1cccnc1)NCCCCC1CCN(C(=O)c2ccc(N3CCN(CCCC#Cc4cccc5c4C(=O)N(C4CCC(=O)NC4=O)C5=O)CC3)cc2)CC1 (stereo not drawn) [SIAIS631119, (E)-N-(4-(1-(4-(4-(5-(2-(2,6-dioxopiperidin-3-yl)-1,3-dioxoisoindolin-4-yl)pent-4-yn-1-yl)piperazin-1-yl)benzoyl)piperidin-4-yl)butyl)-3-(pyridin-3-yl)acrylamide]
7 | 71 nM | O=C(/C=C/c1cccnc1)NCCCCC1CCN(C(=O)c2ccc(N3CCN(CCCCC#Cc4cccc5c4C(=O)N(C4CCC(=O)NC4=O)C5=O)CC3)cc2)CC1 (stereo not drawn) [SIAIS631120, (E)-N-(4-(1-(4-(4-(6-(2-(2,6-dioxopiperidin-3-yl)-1,3-dioxoisoindolin-4-yl)hex-5-yn-1-yl)piperazin-1-yl)benzoyl)piperidin-4-yl)butyl)-3-(pyridin-3-yl)acrylamide]
8 | 63.9 nM | O=C(/C=C/c1cccnc1)NCCCCC1CCN(C(=O)c2ccc(N3CCN(CCCCCCC#Cc4cccc5c4C(=O)N(C4CCC(=O)NC4=O)C5=O)CC3)cc2)CC1 (stereo not drawn) [SIAIS631121, (E)-N-(4-(1-(4-(4-(8-(2-(2,6-dioxopiperidin-3-yl)-1,3-dioxoisoindolin-4-yl)oct-7-yn-1-yl)piperazin-1-yl)benzoyl)piperidin-4-yl)butyl)-3-(pyridin-3-yl)acrylamide]
9 | 725 nM | O=C(/C=C/c1cccnc1)NCCCCC1CCN(C(=O)c2ccc(N3CCC(N4CCNCC4)CC3)nn2)CC1 [SIAIS631135, (E)-N-(4-(1-(6-(4-(piperazin-1-yl)piperidin-1-yl)pyridazine-3-carbonyl)piperidin-4-yl)butyl)-3-(pyridin-3-yl)acrylamide]
10 | 5.23 nM | O=C(/C=C/c1cccnc1)NCCCCC1CCN(C(=O)c2ccc(C3CCN(CCCCCC#Cc4cccc5c4CN(C4CCC(=O)NC4=O)C5=O)CC3)cc2)CC1 (stereo not drawn) [SIAIS631139, (E)-N-(4-(1-(4-(1-(7-(2-(2,6-dioxopiperidin-3-yl)-1-oxoisoindolin-4-yl)hept-6-yn-1-yl)piperidin-4-yl)benzoyl)piperidin-4-yl)butyl)-3-(pyridin-3-yl)acrylamide]
11 | 9.7 nM | O=C(/C=C/c1cccnc1)NCCCCC1CCN(C(=O)c2ccc(C3CCN(CCCCCCC#Cc4cccc5c4CN(C4CCC(=O)NC4=O)C5=O)CC3)cc2)CC1 (stereo not drawn) [SIAIS631140, (E)-N-(4-(1-(4-(1-(8-(2-(2,6-dioxopiperidin-3-yl)-1-oxoisoindolin-4-yl)oct-7-yn-1-yl)piperidin-4-yl)benzoyl)piperidin-4-yl)butyl)-3-(pyridin-3-yl)acrylamide]
12 | 5.36 nM | O=C(/C=C/c1cccnc1)NCCCCC1CCN(C(=O)c2ccc(C3CCN(CCCCSc4cccc5c4CN(C4CCC(=O)NC4=O)C5=O)CC3)cc2)CC1 (stereo not drawn) [SIAIS631141, (E)-N-(4-(1-(4-(1-(4-((2-(2,6-dioxopiperidin-3-yl)-1-oxoisoindolin-4-yl)thio)butyl)piperidin-4-yl)benzoyl)piperidin-4-yl)butyl)-3-(pyridin-3-yl)acrylamide]
13 | 362 nM | O=C(/C=C/c1cccnc1)NCCCCC1CCN(C(=O)c2ccc(N3CCNCC3)nn2)CC1 [SIAIS632004, (E)-N-(4-(1-(6-(piperazin-1-yl)pyridazine-3-carbonyl)piperidin-4-yl)butyl)-3-(pyridin-3-yl)acrylamide]
14 | 3.98 nM | O=C(/C=C/c1cccnc1)NCCCCC1CCN(C(=O)c2ccc(N3CCC(N4CCN(CCCCCC#Cc5cccc6c5CN(C5CCC(=O)NC5=O)C6=O)CC4)CC3)nn2)CC1 (stereo not drawn) [SIAIS632005, (E)-N-(4-(1-(6-(4-(4-(7-(2-(2,6-dioxopiperidin-3-yl)-1-oxoisoindolin-4-yl)hept-6-yn-1-yl)piperazin-1-yl)piperidin-1-yl)pyridazine-3-carbonyl)piperidin-4-yl)butyl)-3-(pyridin-3-yl)acrylamide]
15 | 6.39 nM | O=C(/C=C/c1cccnc1)NCCCCC1CCN(C(=O)c2ccc(N3CCC(N4CCN(CCCCCCC#Cc5cccc6c5CN(C5CCC(=O)NC5=O)C6=O)CC4)CC3)nn2)CC1 (stereo not drawn) [SIAIS632006, (E)-N-(4-(1-(6-(4-(4-(8-(2-(2,6-dioxopiperidin-3-yl)-1-oxoisoindolin-4-yl)oct-7-yn-1-yl)piperazin-1-yl)piperidin-1-yl)pyridazine-3-carbonyl)piperidin-4-yl)butyl)-3-(pyridin-3-yl)acrylamide]
16 | 3.59 nM | O=C(/C=C/c1cccnc1)NCCCCC1CCN(C(=O)c2ccc(N3CCC(N4CCN(CCCCSc5cccc6c5CN(C5CCC(=O)NC5=O)C6=O)CC4)CC3)nn2)CC1 (stereo not drawn) [SIAIS632007, (E)-N-(4-(1-(6-(4-(4-(4-((2-(2,6-dioxopiperidin-3-yl)-1-oxoisoindolin-4-yl)thio)butyl)piperazin-1-yl)piperidin-1-yl)pyridazine-3-carbonyl)piperidin-4-yl)butyl)-3-(pyridin-3-yl)acrylamide]
17 | 8.35 nM | O=C(/C=C/c1cccnc1)NCCCCC1CCN(C(=O)c2ccc(N3CCN(CCCCCC#Cc4cccc5c4CN(C4CCC(=O)NC4=O)C5=O)CC3)nn2)CC1 (stereo not drawn) [SIAIS632010, (E)-N-(4-(1-(6-(4-(7-(2-(2,6-dioxopiperidin-3-yl)-1-oxoisoindolin-4-yl)hept-6-yn-1-yl)piperazin-1-yl)pyridazine-3-carbonyl)piperidin-4-yl)butyl)-3-(pyridin-3-yl)acrylamide]
18 | 9.3 nM | O=C(/C=C/c1cccnc1)NCCCCC1CCN(C(=O)c2ccc(N3CCN(CCCCCCC#Cc4cccc5c4CN(C4CCC(=O)NC4=O)C5=O)CC3)nn2)CC1 (stereo not drawn) [SIAIS632011, (E)-N-(4-(1-(6-(4-(8-(2-(2,6-dioxopiperidin-3-yl)-1-oxoisoindolin-4-yl)oct-7-yn-1-yl)piperazin-1-yl)pyridazine-3-carbonyl)piperidin-4-yl)butyl)-3-(pyridin-3-yl)acrylamide]
19 | 1.66 nM | O=C(/C=C/c1cccnc1)NCCCCC1CCN(C(=O)c2ccc(N3CCN(CCCCSc4cccc5c4CN(C4CCC(=O)NC4=O)C5=O)CC3)nn2)CC1 (stereo not drawn) [SIAIS632012, (E)-N-(4-(1-(6-(4-(4-((2-(2,6-dioxopiperidin-3-yl)-1-oxoisoindolin-4-yl)thio)butyl)piperazin-1-yl)pyridazine-3-carbonyl)piperidin-4-yl)butyl)-3-(pyridin-3-yl)acrylamide]
20 | 6.81 nM | O=C(/C=C/c1cccnc1)NCCCCC1CCN(C(=O)c2ccc(N3CCN(C(=O)CNc4cccc5c4CN(C4CCC(=O)NC4=O)C5=O)CC3)cc2)CC1 (stereo not drawn) [SIAIS632014, (E)-N-(4-(1-(4-(4-((2-(2,6-dioxopiperidin-3-yl)-1-oxoisoindolin-4-yl)glycyl)piperazin-1-yl)benzoyl)piperidin-4-yl)butyl)-3-(pyridin-3-yl)acrylamide]
21 | 523 nM | O=C(/C=C/c1cccnc1)NCCCCC1CCN(C(=O)c2ccc(N3CCN(C(=O)CCCNc4cccc5c4CN(C4CCC(=O)NC4=O)C5=O)CC3)cc2)CC1 (stereo not drawn) [SIAIS632015, (E)-N-(4-(1-(4-(4-(4-((2-(2,6-dioxopiperidin-3-yl)-1-oxoisoindolin-4-yl)amino)butanoyl)piperazin-1-yl)benzoyl)piperidin-4-yl)butyl)-3-(pyridin-3-yl)acrylamide]
